Test results as given in the Biogen ADME set (Fang et al. 2023).
Values after ≈ are worked out from the molar mass of the structure shown.

Details: for aqueous solubility: pH 6.8

Row | SMILES | fraction unbound, human plasma | fraction unbound, rat plasma | intrinsic clearance, human liver microsomes [mL/min/kg] | intrinsic clearance, rat liver microsomes [mL/min/kg] | aqueous solubility [µg/mL] | MDR1-MDCK efflux ratio
1 | O=C(c1ccccc1F)N1CCC[C@@H]1Cn1nnn(-c2cccs2)c1=O | – | – | 62.4 | 1240 | 33 (≈ 88.4 µM) | 0.769
2 | Cc1noc(OCC(=O)N2CCCCCC2)n1 | – | – | ≤ 4.74 | ≤ 10.7 | 50.2 (≈ 210 µM) | 1.01
3 | Cc1nc(C)c(CNc2ncnn2C)s1 | – | – | ≤ 4.74 | 22.5 | – | 4
4 | c1cnc(NCc2cnc3ccsc3c2)nc1 | – | – | 12.5 | 52.9 | – | 0.589
5 | COCCNC(=O)c1nnc2n(c1=O)CCN2c1ccccc1 | – | – | ≤ 4.74 | ≤ 10.7 | – | 9.52
6 | O=C(C1CC1)N1CC[C@@H](Cc2n[nH]c(=O)n2-c2ccc(-c3ccc4occc4c3)cc2)C1 | – | – | 20.4 | 101 | 40.1 (≈ 93.6 µM) | 61.1
7 | CN(C)C(=O)C(C)(C)NC(=O)OC(C)(C)C | – | – | ≤ 4.74 | 24.3 | – | 1.37
8 | O=C1OCCN1CCN1CCC(c2cc3ccccc3[nH]2)CC1 | – | – | 11.1 | 488 | – | –
9 | CS(=O)(=O)NC1CCN(C(=O)NCCc2ccc(F)cc2)CC1 | – | – | ≤ 4.74 | 61.4 | 67.9 (≈ 198 µM) | 35.3
10 | CC(C)c1nc(O)c2nnn(C[C@@H]3CCCN(C(=O)C(C)(C)C)C3)c2n1 | – | – | 29.4 | 281 | 43.9 (≈ 122 µM) | 34.4
11 | CCc1c(-c2ccccc2)[n+]([O-])c2c([n+]1[O-])CCCCC2 | – | – | 8.95 | 43.4 | – | 2.95
12 | Cn1cncc1-c1ncccc1C(=O)N1CCCC1 | – | – | ≤ 4.74 | ≤ 10.7 | 54.2 (≈ 211 µM) | 17.3
13 | Cc1cnn(CCNC(=O)C2(Cn3cccn3)CC2)c1 | – | – | 10.2 | 108 | – | 6.11
14 | O=C(O)c1cnc(/C=C/c2csc(-c3ccsc3)n2)s1 | – | – | 7.87 | 59.3 | 77.5 (≈ 242 µM) | 0.832
15 | CNC(=O)c1cccc(Cn2nnc(-c3ccccc3Cl)n2)c1 | – | – | 16.5 | 775 | 22.9 (≈ 70 µM) | 9.33
16 | Cc1nc(-c2ccccc2)c(C(=O)Nc2ccc(Cl)c(Cl)c2)s1 | – | – | 89.2 | 2390 | – | 0.73
17 | CC(C)c1nnc(CNC(=O)C2(C)CCC2)n1C | – | – | ≤ 4.74 | ≤ 10.7 | 51.8 (≈ 207 µM) | 45.4
18 | Nc1nc2ccccc2nc1N1CCCC1 | – | – | 232 | 337 | 29.9 (≈ 139 µM) | 0.533
19 | CCC(=O)N1CCN(c2ccc(Cl)cc2NC(=O)COc2ccccc2)CC1 | 0.0178 | – | 88.4 | 1840 | – | 0.871
20 | CC(C)CN1C(=O)C(=O)N(Cc2ccccn2)C1=O | – | – | ≤ 4.74 | 28.4 | 39.2 (≈ 150 µM) | 0.838
21 | COc1ccc(CN2CCC(c3cc[nH]n3)CC2)cn1 | – | – | ≤ 4.74 | 103 | – | –
22 | O=C(Nc1ccccn1)c1ccc2c(c1)C(=O)N(C1CCCCC1)C2=O | – | – | 11.8 | 791 | – | 0.393
23 | Nc1ccc(Oc2ccccc2F)nc1 | – | – | ≤ 4.74 | 26.2 | 25.6 (≈ 125 µM) | 0.53

Second part, the compound after the results:

Row | fraction unbound, human plasma | fraction unbound, rat plasma | intrinsic clearance, human liver microsomes [mL/min/kg] | intrinsic clearance, rat liver microsomes [mL/min/kg] | aqueous solubility [µg/mL] | MDR1-MDCK efflux ratio | SMILES
24 | 0.0539 | 0.0286 | 8.57 | 191 | 2.5 (≈ 8.03 µM) | – | CC(C)(C)c1ccc(-c2nc3n(c(=O)c2C#N)CCS3)cc1
25 | – | – | 202 | 1590 | 42.5 (≈ 116 µM) | 1.48 | COc1ccc(CNc2ncc(-c3ccc4c(c3)OCO4)n2C)c(OC)c1
26 | – | – | ≤ 4.74 | 53.4 | – | 65.9 | Cc1cc(C)c2ccc(C(=O)N3CCN(c4ncc[nH]c4=O)CC3)cc2n1
27 | – | – | 5.37 | 26.5 | 32.8 (≈ 152 µM) | 1.08 | COc1ccc(C)cc1-c1cccnc1O
28 | – | – | 51 | 120 | – | 56.3 | CC1=C(C(=O)Nc2cc3cn[nH]c3cc2F)C(c2ccc(C(F)(F)F)cc2)CC(=O)N1 (configuration not stated)
29 | – | – | 61 | 658 | 42.6 (≈ 150 µM) | – | Fc1cccc(N[C@H]2CCCN[C@H]2Cc2ccccc2)c1
30 | – | – | 10.7 | 235 | 36.2 (≈ 148 µM) | 1.07 | Cc1nc(NCC(C)(C)c2ccccc2)n(C)n1
31 | – | – | 175 | 1980 | 2.45 (≈ 6.72 µM) | 0.717 | COc1ccc(-c2cccc(C3CCCN(C(=O)C4CCCC4)C3)n2)cc1 (configuration not stated)
32 | 0.00076 | 0.0015 | – | – | – | – | COc1cc2nc(-c3cc(F)ccc3O)nc(N[C@@H]3CNC[C@H]3C(C)(C)O)c2cc1OC.Cl
33 | – | – | ≤ 4.74 | ≤ 10.7 | – | 2.86 | O=c1oc2cccnc2n1Cc1ncc(-c2ccc(F)cc2)o1
34 | 0.0183 | 0.0409 | 8.13 | 37.4 | 45 (≈ 109 µM) | 46.4 | O=C(Nc1cccc(-c2nncn2C2CC2)c1)c1cc(-n2cnc(C3CC3)c2)ccn1
35 | – | – | 2360 | 3130 | – | – | Cc1cc(C)nc(SCC(=O)N2c3ccccc3C(C)(c3ccccc3)CC2(C)C)n1 (configuration not stated)
36 | – | – | 35 | 1710 | 47.1 (≈ 141 µM) | 0.777 | COc1ccc(CN2CCC(c3nc(C(C)C)no3)CC2)c(F)c1
37 | 0.769 | – | ≤ 4.74 | – | – | 0.835 | CN(C(=O)c1cc(N2CCNC2=O)ccc1F)C1CCNC1 (configuration not stated)
38 | – | – | 48.5 | 319 | – | 0.551 | OCCOc1ccccc1OCc1ncc(Cl)cc1Cl
39 | – | – | 111 | 169 | 22.6 (≈ 99.4 µM) | 0.587 | CCc1oc2c(-n3cnnc3)cccc2c1C
